Experimental data taken from patent publication US20240174605A1, “ARYLSULFONAMIDES AS OREXIN RECEPTOR AGONISTS” (RESEARCH TRIANGLE INSTITUTE, priority 2021, published 2024).
In brackets after ≈: the same amount, converted by molar mass. Entries after “also recorded” stand apart in the source; their conditions may differ. Like-named read-outs stand apart in the source and are kept apart here.

Key:
[1] = Metabolic stability in rat liver microsomes (RLM); format: in vitro ADME; conditions: for metabolic stability in rat liver microsomes, in words: RLM; for half-life: rat, rat liver microsomes, read-out: t1/2 (RLM)
From the text: (§1) The main structural difference is the pyridyl group connected to the sulfonamide in RTIOXA-47, as compared to the other 3 compounds. The replacement of a phenyl group with a pyridyl reduced the electron density of this aromatic ring.

human OX2 receptor = target: T1, human OX2 receptor (Homo sapiens, UniProt O43614); test: OX2R calcium mobilization assay; format: cell-based; conditions: for Emax: Table 10; for agonist potency at OX2R, in words: calcium mobilization
T1 construct: host or cells: CHO RD-HGA16 cells
T1 sequence (O43614 1-444): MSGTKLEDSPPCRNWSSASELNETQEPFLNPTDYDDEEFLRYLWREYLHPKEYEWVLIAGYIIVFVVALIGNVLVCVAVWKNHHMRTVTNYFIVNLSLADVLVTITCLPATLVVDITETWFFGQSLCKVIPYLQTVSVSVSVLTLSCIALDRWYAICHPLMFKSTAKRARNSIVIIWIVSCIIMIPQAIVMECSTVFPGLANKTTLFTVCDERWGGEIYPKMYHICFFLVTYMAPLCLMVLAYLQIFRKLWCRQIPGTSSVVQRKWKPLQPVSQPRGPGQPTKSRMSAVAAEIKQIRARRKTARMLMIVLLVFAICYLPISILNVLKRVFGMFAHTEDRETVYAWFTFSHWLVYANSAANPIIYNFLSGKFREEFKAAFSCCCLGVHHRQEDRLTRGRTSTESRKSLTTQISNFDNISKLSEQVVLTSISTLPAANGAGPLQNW
Procedure: (§2) Activity of the target compounds at the human OX1 and OX2 receptors was determined utilizing CHO RD-HGA16 cells (Molecular Devices) engineered to stably express either the human OX1 or the human OX2 receptor. Cells were maintained in Ham's F12 supplemented with 10% fetal bovine serum, 100 units of penicillin and streptomycin, and 100 μg/mL normocin™. To conduct the assay, cells were plated at 25,000 cells/well and incubated overnight at 37° C., 5% CO2. The next day, cells were washed with assay buffer and loaded with Calcium 5 dye (Molecular Devices). After 45 minutes, cells were pretreated with a 9% DMSO solution for 15 minutes.
(§3) All of the synthesized compounds were characterized for their agonist potencies in the calcium mobilization assays using CHO cells overexpressing either the OX1R or OX2R. Reference is made to German, N. A.; Decker, A. M.; Gilmour, B. P.; Thomas, B. F.; Zhang, Y., Truncated Orexin Peptides: Structure-Activity Relationship Studies.

σ1 = σ1 (Homo sapiens, UniProt Q99720); test: Target selectivity: σ1; format: binding
Sequence of σ1 (Q99720 whole entry): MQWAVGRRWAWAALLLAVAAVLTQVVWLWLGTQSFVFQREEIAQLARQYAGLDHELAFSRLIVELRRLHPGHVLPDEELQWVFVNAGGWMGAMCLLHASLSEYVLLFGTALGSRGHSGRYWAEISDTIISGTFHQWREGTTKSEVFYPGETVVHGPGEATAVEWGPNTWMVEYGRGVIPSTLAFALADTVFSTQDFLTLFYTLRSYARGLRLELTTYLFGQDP

wild-type mice = conditions: 40 mg/kg i.p., salt form; cited from earlier work
[2] = Aqueous solubility at pH 2; format: physicochemical; conditions: aqueous medium at pH 2, pH 2, simulated gastric fluid
From the text: as §1

OX1R [3] = target: T2, OX1R (Homo sapiens, UniProt O43613); test: OX1R calcium mobilization assay; format: cell-based; design: host or cells: CHO RD-HGA16 cells; conditions: for OX1/OX2: ratio of OX1 to OX2 potency value; for agonist potency at OX1R, in words: calcium mobilization
T2 sequence (O43613 1-425): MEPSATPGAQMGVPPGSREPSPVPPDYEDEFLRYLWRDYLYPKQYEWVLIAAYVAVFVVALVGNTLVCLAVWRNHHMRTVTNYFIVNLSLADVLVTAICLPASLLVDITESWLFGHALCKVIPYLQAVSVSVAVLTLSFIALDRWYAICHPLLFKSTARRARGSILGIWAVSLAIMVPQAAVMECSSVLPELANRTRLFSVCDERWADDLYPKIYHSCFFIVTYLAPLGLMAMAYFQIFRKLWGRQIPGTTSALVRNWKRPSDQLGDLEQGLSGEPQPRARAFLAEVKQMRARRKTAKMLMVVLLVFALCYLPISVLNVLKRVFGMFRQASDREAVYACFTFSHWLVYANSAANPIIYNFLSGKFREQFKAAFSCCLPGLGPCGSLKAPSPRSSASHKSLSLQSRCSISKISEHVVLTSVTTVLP
Procedure: as §2, §3

Half-life in vivo = conditions: read-out: t1/2 (in vivo) (converted)
OX1R [4] = target: T2, OX1R; conditions: literature; cited from earlier work
[5] = literature (Turku et al. 2017); cited from earlier work
both orexin receptors = conditions: literature (Turku et al. 2017); cited from earlier work
[6] = CHO RD-HGA16 cells expressing human OX2, calcium mobilization, read-out: EC50 (OX2)
[7] = CHO RD-HGA16 cells expressing human OX1, calcium mobilization, read-out: EC50 (OX1)

## COc1ccc(-c2cccc(C(=O)N(C)C)c2)cc1S(=O)(=O)Nc1cccc(NCCNC(=O)c2ccccc2N(C)C)c1 [Compound 1, reference compound]
[1]
  metabolic stability in rat liver microsomes, in words: modest metabolic stability
  half-life: < 1 min
Human OX2 receptor
  Emax: 94%
σ1
  Ki: 2.5 µM
wild-type mice
  body temperature: without affecting body temperature
[2]
  solubility: > 400 µM
OX1R [3]; Table 10
  Emax: 55%

## COc1ccc(-c2cccc(C(=O)N3CCCC3)c2)cc1S(=O)(=O)Nc1cccc(NCCNC(=O)c2ccccc2N(C)C)c1 [Compound 3]
Human OX2 receptor; [6]
  EC50: 0.252 µM

## CCCNC(=O)c1cccc(-c2ccc(OC)c(S(=O)(=O)Nc3cccc(NCCNC(=O)c4ccccc4N(C)C)c3)c2)c1 [Compound 4]
OX1R [3]; [7]
  EC50: > 10 µM
OX1R [3]
  OX1/OX2: >20

## CCN(CC)C(=O)c1cccc(-c2ccc(OC)c(S(=O)(=O)Nc3cccc(NCCNC(=O)c4ccccc4N(C)C)c3)c2)c1 [Compound 5]
OX1R [3]; [7]
  EC50: 0.737 µM
OX1R [3]
  OX1/OX2: 3.32

## COc1ccc(-c2cccc(C(C)C)c2)cc1S(=O)(=O)Nc1cccc(NCCNC(=O)c2ccccc2N(C)C)c1 [Compound 6]
Human OX2 receptor; [6]
  EC50: > 10 µM
OX1R [3]; [7]
  EC50: > 10 µM

## COc1ccc(-c2cccc(N(C)C)c2)cc1S(=O)(=O)Nc1cccc(NCCNC(=O)c2ccccc2N(C)C)c1 [Compound 7]
Human OX2 receptor; [6]
  EC50: 2.13 µM
OX1R [3]; [7]
  EC50: > 10 µM
OX1R [3]
  OX1/OX2: >20

## CCN(CC)c1cccc(-c2ccc(OC)c(S(=O)(=O)Nc3cccc(NCCNC(=O)c4ccccc4N(C)C)c3)c2)c1 [Compound 8]
OX1R [3]; [7]
  EC50: > 10 µM
OX1R [3]
  OX1/OX2: >20

## CCCN(CCC)c1cccc(-c2ccc(OC)c(S(=O)(=O)Nc3cccc(NCCNC(=O)c4ccccc4N(C)C)c3)c2)c1 [Compound 9]
Human OX2 receptor; [6]
  EC50: > 10 µM
OX1R [3]; [7]
  EC50: > 10 µM

## COc1ccc(-c2cccc(C(C)(C)C)c2)cc1S(=O)(=O)Nc1cccc(NCCNC(=O)c2ccccc2N(C)C)c1 [Compound 10]
Human OX2 receptor; [6]
  EC50: > 10 µM
OX1R [3]; [7]
  EC50: > 10 µM

## COc1ccc(-c2cccc(C(F)(F)F)c2)cc1S(=O)(=O)Nc1cccc(NCCNC(=O)c2ccccc2N(C)C)c1 [Compound 11]
Human OX2 receptor; [6]
  EC50: > 10 µM
OX1R [3]; [7]
  EC50: > 10 µM

## COc1ccc(-c2cccc(C(=O)N(C)C)c2)cc1S(=O)(=O)Nc1cccc(N2CCN(C(=O)c3ccccc3N(C)C)CC2)c1 [Compound 17]
Human OX2 receptor; [6]
  EC50: > 10 µM
OX1R [3]; [7]
  EC50: > 10 µM

## COc1ccc(-c2cccc(C(=O)N(C)C)c2)cc1S(=O)(=O)Nc1cccc(N2CCN(C(=O)c3cccc(C)c3)CC2)c1 [Compound 18]
Human OX2 receptor; [6]
  EC50: > 10 µM
OX1R [3]; [7]
  EC50: > 10 µM

## COc1ccc(-c2cccc(C(=O)NCCN(C)C)c2)cc1S(=O)(=O)Nc1cccc(NCCNC(=O)c2cccc(C)c2)c1 [Compound 32]
Human OX2 receptor
  agonist potency at OX2R, in words: sharp decrease of potency
OX1R [3]
  agonist potency at OX1R, in words: complete loss of potency
  OX1/OX2: >10.0

## COc1ccc(-c2cccc(C(=O)N(C)c3ccccn3)c2)cc1S(=O)(=O)Nc1cccc(NCCNC(=O)c2cccc(C)c2)c1 [Compound 33]
OX1R [3]
  OX1/OX2: 4.69

## COc1ccc(-c2cccc(C(=O)NCc3ccccn3)c2)cc1S(=O)(=O)Nc1cccc(NCCNC(=O)c2cccc(C)c2)c1 [Compound 36]
OX1R [3]
  agonist potency at OX1R, in words: complete loss of the OX1R potency
  OX1/OX2: >20.0

## COc1ccc(-c2cccc(C(=O)N(C)Cc3ccncc3)c2)cc1S(=O)(=O)Nc1cccc(NCCNC(=O)c2cccc(C)c2)c1 [Compound 38]
[1]
  metabolic stability in rat liver microsomes, in words: modest metabolic stability
  half-life: 1.9 min
Human OX2 receptor
  Emax: 96%
  agonist potency at OX2R, in words: high and equal potency
[2]
  solubility: 313 µM (≈ 208 µg/mL)
OX1R [3]; Table 10
  Emax: 105%
OX1R [3]; Table 10, read-out: OX1R EC50
  EC50: 0.024 µM
OX1R [3]
  agonist potency at OX1R, in words: high and equal potency
  OX1/OX2: 1.0

## COc1ccc(-c2cccc(C(=O)N(C)CCc3ccccn3)c2)cc1S(=O)(=O)Nc1cccc(NCCNC(=O)c2cccc(C)c2)c1 [Compound 39]
OX1R [3]
  OX1/OX2: 2.78

## COc1ccc(-c2cccc(C(=O)N(C)C)c2)cc1C(=O)Nc1cccc(NCCNC(=O)c2cccc(C)c2)c1 [Compound 41]
OX1R [3]
  agonist potency at OX1R, in words: inactive

## COc1ccc(-c2cccc(C(=O)N(C)Cc3ccncc3)c2)cc1-c1nnc(Nc2cccc(NCCNC(=O)c3cccc(C)c3)c2)s1 [Compound 43]
Human OX2 receptor
  agonist potency at OX2R, in words: inactive
OX1R [3]
  agonist potency at OX1R, in words: inactive

## COc1ccc(-c2cccc(C(=O)N(C)Cc3ccncc3)c2)cc1-c1nnc(Nc2cccc(OCCNC(=O)c3cccc(C)c3)c2)s1 [Compound 44]
Human OX2 receptor
  agonist potency at OX2R, in words: inactive
OX1R [3]
  agonist potency at OX1R, in words: inactive

## COc1ccc(-c2cccc(C(=O)N(C)Cc3ccncc3)c2)cc1S(=O)(=O)Nc1cncc(OCCNC(=O)c2cccc(C)c2)c1 [Compound 55]
OX1R [3]
  OX1/OX2: 1.52

## COc1ccc(-c2cccc(C(=O)N(C)Cc3ccncc3)n2)cc1S(=O)(=O)Nc1cccc(NCCNC(=O)c2cccc(C)c2)c1 [Compound 59]
[1]
  metabolic stability in rat liver microsomes, in words: modest metabolic stability
  half-life: 1.8 min
Human OX2 receptor
  Emax: 94%
[2]
  solubility: > 400 µM
OX1R [3]; Table 10
  Emax: 95%

## COc1ccc(-c2cccc(C(=O)N(C)Cc3ccncc3)c2)cc1S(=O)(=O)Nc1cncc(NCCNC(=O)c2cccc(C)c2)c1 [Compound 61]
Half-life in vivo
  half-life: 318 min
[1]; listed as RTIOXA-47
  metabolic stability in rat liver microsomes, in words: significantly improved half-life; also recorded: significantly improved metabolic stability
[1]
  half-life: 39.7 min
Human OX2 receptor
  Emax: 99%
[2]
  solubility: > 400 µM
OX1R [3]; Table 10
  Emax: 101%

## CCC(=O)NCCNc1cncc(NS(=O)(=O)c2cc(-c3cccc(C(=O)N(C)Cc4ccncc4)c3)ccc2OC)c1 [Compound 63]
OX1R [3]
  OX1/OX2: 0.48

## COc1ccc(-c2cccc(C(=O)N(C)Cc3ccncc3)c2)cc1S(=O)(=O)Nc1cncc(NCCNC(=O)C(C)C)c1 [Compound 64]
OX1R [3]
  OX1/OX2: 0.46

## CCCC(=O)NCCNc1cncc(NS(=O)(=O)c2cc(-c3cccc(C(=O)N(C)Cc4ccncc4)c3)ccc2OC)c1 [Compound 65]
OX1R [3]
  OX1/OX2: 0.60

## CCCCC(=O)NCCNc1cncc(NS(=O)(=O)c2cc(-c3cccc(C(=O)N(C)Cc4ccncc4)c3)ccc2OC)c1 [Compound 66]
OX1R [3]
  OX1/OX2: 0.33

## CCCCCC(=O)NCCNc1cncc(NS(=O)(=O)c2cc(-c3cccc(C(=O)N(C)Cc4ccncc4)c3)ccc2OC)c1 [Compound 67]
Human OX2 receptor
  EC50: 0.0997 µM
OX1R [3]
  EC50: 0.0333 µM
  OX1/OX2: 0.33

## COc1ccc(-c2cccc(C(=O)N(C)Cc3ccncc3)c2)cc1S(=O)(=O)Nc1cncc(NCCNC(=O)C2CCCCC2)c1 [Compound 68]
OX1R [3]
  OX1/OX2: 0.44

## COc1ccc(-c2cccc(C(=O)N(C)Cc3ccncc3)c2)cc1S(=O)(=O)Nc1cncc(NCCNC(=O)CC2CCCC2)c1 [Compound 69]
OX1R [3]
  OX1/OX2: 0.57

## COc1ccc(-c2cccc(C(=O)N(C)Cc3ccncc3)c2)cc1S(=O)(=O)Nc1cncc(NCCNC(=O)CCC2CCCCC2)c1 [Compound 70]
OX1R [3]
  OX1/OX2: 0.72

## COC(=O)N1CCC[C@H](NS(C)(=O)=O)[C@@H]1CO[C@H]1CC[C@@H](c2ccccc2)CC1 [TAK-925]
OX1R [4]
  activity at OX1R, in words: little to no activity

## Cc1ccc(Cn2c(=N)n(CC(O)c3ccc(Cl)c(Cl)c3)c3ccccc32)cc1 (stereo not drawn) [Yan7874]
[5]
  cytotoxicity: orexin receptor independent cytotoxicity
Both orexin receptors
  EC50: > 3.2 µM
